Legend:
[1] = test system: cardiac beta-adrenoceptors; assay: Experiment A: blockade of isoprenaline induced heart rate response, i.v. bolus of test compound, reserpinized anaesthetized cat; type: in vivo; settings: i.v. bolus injection during isoprenaline infusion, reserpine pretreated, pentobarbital anaesthetized, vagotomized cats
Procedure: (§1) A bilateral vagotomy was performed in the neck. […] The perfusion pressure (PP) was recorded.
For each dose of the test compound the peak reduction of the isoprenaline heart rate response was expressed as per cent blockade according to the formula: [formula]
(§2) Per cent blockade (for each dose) was then plotted against log dose of the test compound. The ED:50 value (i.e. the dose which produced half maximal blockade) was interpolated.

[2] = test system: vascular beta-adrenoceptors; assay: Experiment B: blockade of isoprenaline induced vasodilatation, i.v. infusion of test compound; type: in vivo; settings: i.v. infusion 12 minutes per dose, isoprenaline bolus 10 minutes after start, reserpine pretreated cats
Procedure: as §1
(§3) An isoprenaline bolus dose which gave a heart rate response which was about 80% of the maximal response was then tested out. Usually this dose of isoprenaline was 0.4 µmol/kg.
(§4) The test compound was then infused intravenously in increasing doses. Each dose was given during 12 minutes with an interval of 18 minutes between doses.
(§5) The control dose of isoprenaline was injected 10 minutes after start of each infusion of the test compound. The dose of the test compound was increased logarithmically until total blockade of the isoprenaline responses was achieved.
(§6) The inhibitory effect of each dose of the test compound was expressed as per cent blockade according to the formula: [formula]
(§7) Per cent blockade was then plotted against log dose of the blocker and the ED:50-value was interpolated (cf. above). The ED:50 for heart rate blockade and ED:50 for blockade of the vaso- dilatation could then be compared and the selectivity for the compound estimated. Intrinsic sympa- thomimetic activity was evaluated as the maximal heart rate elevation during infusion of the test compound.

[3] = test system: vascular beta-adrenoceptors; assay: Experiment A: blockade of isoprenaline induced vasodilatation (hind leg perfusion pressure), i.v. bolus of test compound; type: in vivo; settings: i.v. bolus injection during isoprenaline infusion, reserpine pretreated cats
Procedure: A bilateral vagotomy was performed in the neck. […] The perfusion pressure (PP) was recorded. […]
as §2

[4] = in vivo; settings: cat, iv
Procedure: (§8) All compounds were thereby tested in two different experimental models but with the same species, premedication and preparation. Cats (males and females weighing 2.5-3.5 kg) were pretreated with reserpine (5 mg/kg bodyweight administered intraperitoneally) about 16 hours before the experiments. The animals were pretreated with reserpine in order to eliminate the endogenous sympathetic control of heart rate and vascular smooth muscle tone. The cats were anaesthetized with pentobarbital (30 mg/kg bodyweight administered i.p.) and artificially ventilated with room air. A bilateral vagotomy was performed in the neck. Blood pressure was obtained from a cannulated carotid artery and heart rate was recorded from a cardiotachometer, triggered by the oscillations in blood pressure. The femoral artery of one hind leg was cannulated in both directions. Blood taken from the proximal part was pumped, at a constant flowrate, back into the distal part of the artery by means of a roller pump (Watson-Marlow). The perfusion pressure (PP) was recorded. Changes in PP indicated changes in the peripheral vascular resistance of the leg.
(§9) The maximal heart rate and vasodilator responses to isoprenaline were established by injecting a high i.v. bolus dose of isoprenaline (2.0 µmol/kg). An isoprenaline infusion rate was then established which gave a heart rate response (at steady state) which was about 80% of the maximal heart rate response to isoprenaline. Usually this dose of isoprenaline was 0.25 µmol/kg x min. The vasodilator response to this dose of isoprenaline was also approximately 80% of maximal. The isoprenaline dose was then infused during periods of 20 minutes with an interval of 20 minutes between the infusion periods.
(§10) The test compound was administered as an intravenous bolus injection seven minutes after start of each isoprenaline infusion. The dose of the test compound was increased until total blockade of the isoprenaline responses was achieved.
(§11) The plasma half life was estimated by the method of Levy (Nagashima, R., O'Reilly, R. A. and Levy, G., Clin. Pharmacol. Ther., 10 (1969) 22). The time from the peak inhibitory effect of each dose until 50% recovery was determined and plotted against log dose of the compound. The slope of the line obtained was calculated with linear regression. The slope equals 2.303/KE where Ke is the rate constant for elimination. The plasma half life (t 1/2) was then calculated according to the relation t 1/2 = 0.693/KE.

[5] = test system: cardiac beta-adrenoceptors; assay: Experiment B: blockade of isoprenaline induced heart rate response, i.v. infusion of test compound; type: in vivo; settings: i.v. infusion 12 minutes per dose, isoprenaline bolus 10 minutes after start, reserpine pretreated cats
Procedure: as §1, §3, §4, §5, §6, §7

[6] = Experiment A: plasma half life estimated by the method of Levy from time to 50% recovery of the blockade; settings: cat, iv
Procedure: as §8, §9, §10, §11

SMILES | half-life [4] [min] | half-life [6] [min] | Blockade of isoprenaline induced effects Heart rate ED:50 [1] [µmol/kg] | Blockade of isoprenaline induced effects Vasodilatation ED:50 [2] [µmol/kg/min] | Blockade of isoprenaline induced effects Vasodilatation ED:50 [3] [µmol/kg] | Blockade of isoprenaline induced effects Heart rate ED:50 [5] [µmol/kg/min]
CCOC(=O)CCCc1ccc(OCC(O)CNC(C)C)c(Br)c1 (centres unmarked) [Ex. 8, Ethyl 4-[3-bromo-4-(2-hydroxy-3-isopropylaminopropoxy)phenyl]butanoate] | – | ~8 | 2.1 | >6.4 | >17.0 | 1.2
COC(=O)CCc1ccc(OCC(O)CNC(C)C)c(OC)c1 (centres unmarked) [Ex. 15, methyl 3-[4-(2-hydroxy-3-isopropylaminopropoxy)-3-methoxyphenyl]propanoate] | – | 1 | 0.9 | 18.0 | ~20.0 | 1.9
CCOC(=O)CCc1ccc(OCC(O)CNC(C)C)c(Br)c1 (centres unmarked) [Ex. 20, ethyl 3-[3-bromo-4-(2-hydroxy-3-isopropylaminopropoxy)phenyl]propanoate] | – | 2.2 | 0.45 | >6.4 | >12.8 | 1.2
CCOC(=O)CCc1ccc(OCC(O)CNC(C)C)c(OC)c1 (centres unmarked) [Ex. 21, ethyl 3-[4-(2-hydroxy-3-isopropylaminopropoxy)-3-methoxyphenyl]propanoate] | – | 0.9 | 0.8 | >6.4 | >52 | 2.05
CCOC(=O)CCc1ccc(OCC(O)CNC(C)C)c(OCC)c1 (centres unmarked) [Ex. 22, ethyl 3-[3-ethoxy-4-(2-hydroxy-3-isopropylaminopropoxy)phenyl]propanoate] | – | 0.9 | 2.0 | 0.8 | >52 | 0.6
CCOC(=O)CCc1ccc(OCC(O)CNC(C)C)c(Cl)c1 (centres unmarked) [Ex. 23, ethyl 3-[3-chloro-4-(2-hydroxy-3-isopropylaminopropoxy)phenyl]propanoate] | – | 1.8 | 1.8 | – | >52 | –
COc1cc(CCC(=O)OC(C)C)ccc1OCC(O)CNC(C)C (centres unmarked) [Ex. 24, isopropyl 3-[4-(2-hydroxy-3-isopropylaminopropoxy)-3-methoxyphenyl]propanoate] | – | 2.1 | 1.2 | – | >12.8 | –

The next lines start with results.

half-life [4] [min] | half-life [6] [min] | SMILES | Blockade of isoprenaline induced effects Heart rate ED:50 [1] [µmol/kg] | Blockade of isoprenaline induced effects Vasodilatation ED:50 [2] [µmol/kg/min] | Blockade of isoprenaline induced effects Vasodilatation ED:50 [3] [µmol/kg] | Blockade of isoprenaline induced effects Heart rate ED:50 [5] [µmol/kg/min]
1 | – | COC(=O)CCc1ccc(OCC(O)CNC(C)C)cc1 (centres unmarked) [Ex. 1, methyl 3-[4-(2-hydroxy-3.-isopropylaminopropoxy)phenyl]propanoate] | 2.3 | >25.6 | ~32.0 | 3.6
– | 1 | CCOC(=O)CCc1ccc(OCC(O)CNC(C)C)cc1 (centres unmarked) [Ex. 2, Ethyl 3-[4-(2-hydroxy-3-isopropylaminopropoxy)-phenyl]propanoate] | 4.7 | 12.0 | >51.2 | 2.1
– | 1.5 | COCCOC(=O)CCc1ccc(OCC(O)CNC(C)C)cc1 (centres unmarked) [Ex. 3, 2-Methoxyethyl 3-[4-(2-hydroxy-3-isopropylaminopropoxy)phenyl]propanoate] | 26.0 | >25.6 | ~30.0 | 1.3
– | 1.7 | COCCOC(=O)CCCc1ccc(OCC(O)CNC(C)C)cc1 (centres unmarked) [Ex. 4, 2-Methoxyethyl 4-[4-(2-hydroxy-3-isopropylaminopropoxy)phenyl]butanoate] | 3.0 | 2.3 | 51.8 | 1.1
– | 0.3 | CCCOC(=O)CCc1ccc(OCC(O)CNC(C)C)cc1 (centres unmarked) [Ex. 5, Propyl 3-[4-(2-hydroxy-3-isopropylaminopropoxy)phenyl]propanoate] | ~20.0 | >25.6 | >51.2 | 9.0
– | 3.5 | CC(C)NCC(O)COc1ccc(CCC(=O)OC(C)C)cc1 (centres unmarked) [Ex. 6, Isopropyl 3-[4-(2-hydroxy-3-isopropylaminopropoxy)phenyl]propanoate] | 1.7 | >6.4 | >12.8 | 0.9
– | 3.3 | CCOC(=O)CCCc1ccc(OCC(O)CNC(C)C)cc1 (centres unmarked) [Ex. 7, Ethyl 4-[4-(2-hydroxy-3-isopropylaminopropoxy)phenyl]butanoate] | 1.8 | >6.4 | >51.0 | 1.5
– | 0.9 | CCOC(=O)CCc1ccc(OCC(O)CNC(C)C)c(F)c1 (centres unmarked) [Ex. 25, ethyl 3-[3-fluoro-4-(2-hydroxy-3-isopropylaminopropoxy)phenyl]propanoate] | 0.6 | >6.4 | >12.8 | 2.1

Reference: EP0041491B1, “New para-substituted 3-phenoxy-1-alkylamino-propanol-2-s having beta receptor blocking properties” (priority 1980, dated 1981)
